This is an account of results in patent US11015061B2, “Phthalocyanine-based compound and uses of same” (YAMAMOTO CHEMICALS, INC., priority 2017, dated 2021).

Common to all, as to format: physicochemical
Series [1] in a line: Tts (total solar transmittance) of heat ray shielding film. Conditions: heat ray shielding film (5 g compound, 50 g acryl resin LP-45M, 2.5 μm on PET) on 3 mm glass plate; JIS R3106. An excerpt: The phthalocyanine compound (Specific Example (1)-30) produced in Example 1 (5 g), 50 g of an acryl resin LP-45M (trade name, produced by Soken Chemical & Engineering Co., Ltd.), 20 g of methyl ethyl ketone, and 20 g of toluene were mixed and stirred together, thereby producing a resin composition.
As a transparent substrate, a polyethylene terephthalate film (PET film) having a thickness of 100 μm was bar-coated with the resin composition such that the thickness thereof became 2.5 μm, and then the applied resin composition was dried for 3 minutes at 100° C. Furthermore, the other surface of the PET film (surface not being coated with the resin composition) was bar-coated with a transparent acryl copolymer-based pressure sensitive adhesive such that the thickness thereof became 20 μm, and the applied pressure sensitive adhesive was dried and cured for 3 minutes at 100° C. Thereafter, a release film was bonded to the surface of the pressure sensitive adhesive, thereby producing a heat ray shielding film.
(§1) In the evaluation test, the release film was peeled from the produced heat ray shielding film, then the heat ray shielding film was compressed on a 5 cm×5 cm×3 mm (thickness) glass plate, and a test piece created in this way was used.
By using U-3500 type recording spectrophotometer produced by Hitachi, Ltd. as a measurement instrument, Tts of the laminated glass sample was measured based on JIS R3106 “Testing method for transmittance, reflectance, emissivity, and solar heat gain coefficient of flat glasses”.
Tts (Total solar energy transmitted through a glazing) represents a total solar transmittance.

The nature of series [2]: Absorption spectrum of toluene solution (maximum absorption, gram absorption coefficient). Conditions: for gram absorption coefficient: at maximum absorption. The method, then:
A toluene solution of the compound obtained in this way had maximum absorption at 734.0 nm, and the gram absorption coefficient thereof was 1.21×10^5 mL/g·cm. The absorption spectrum chart thereof is illustrated in FIG. 1.

A short description of series [3]: Heat resistance test of heat ray shielding film. Conditions: 200 hours at 100° C., absorbance integrated 400 to 900 nm. How it is done: as §1
For a heat resistance test, the test piece used for measuring the spectrum before test as described above was treated with heat for 200 hours at a temperature of 100° C. in a thermostat (produced by Yamato Scientific co., ltd.: IG400). By using the spectrophotometer, the absorption spectrum of the heat-treated test piece was measured and adopted as a spectrum after heat resistance test.
(§2) In each of the spectra measured as above before and after the light fastness⋅heat resistance test, the values of absorbance within a range of 400 to 900 nm were integrated, and a difference between the integrated value before the light fastness⋅heat resistance test and the integrated value after the light fastness⋅heat resistance test was calculated.
(§3) The difference ΔE between the absorbance before the light fastness⋅heat resistance test and the absorbance after the light fastness⋅heat resistance test is expressed by the following equation. ΔE (%)={E(400 to 900 nm in E1)−E(400 to 900 nm in E2)}/E(400 to 900 nm in E1)×100
(§4) E1 represents the spectrum before test, E2 represents the spectrum after test, and Σ represents integration of the values of absorbance.
(§5) The larger the value of ΔE, the greater the spectrum change between before and after the light fastness⋅heat resistance test.

Series [4] is described as follows: Solubility in organic solvent (cyclopentanone). The following applies: about 10 wt % dispersion, room temperature, 0.2 μm filter; no residue = 10 wt % or more. The method, then: The solubility of the phthalocyanine compound with respect to cyclopentanone was measured by the following method.
Cyclopentanone was added to about 1 g of the phthalocyanine compound such that the total weight thereof became about 10 g, and the obtained solution was irradiated with ultrasonic waves for about 30 minutes and then stirred for 2 hours at room temperature, thereby preparing a dispersion liquid of about 10 wt %.
The dispersion liquid was filtered through a membrane filter (0.2 μm), the substance obtained by filtration was dried for 1 hour in a drier at 60° C., and then the weight of the substance obtained by filtration was measured.
The solubility of the phthalocyanine compound in a solvent is expressed by the following equation. Solubility (wt %)=(W0−W1)/W0
W0 represents the correct weight of the phthalocyanine not yet being treated, and W1 represents the weight of the substance obtained by filtration (dissolved phthalocyanine compound residue) having been dried.

Series [5] in a line: Heat resistance test of laminated glass. Conditions: 200 hours at 100° C., absorbance integrated 400 to 900 nm. How it is done: (§6) The phthalocyanine-based compound (Specific Example (1)-30) produced in Example 1 (0.013 g) was dissolved in 40 g of triethylene glycol-di-2-ethylhexanoate as an organic ester plasticizer. The obtained solution was added to 100 g of a polyvinyl butyral resin (trade name: BH-3, produced by SEKISUI CHEMICAL CO., LTD.), thoroughly melted and kneaded using a mixing roll, and extruded using an extruder, thereby obtaining an interlayer having a thickness of 0.76 mm.
(§7) The interlayer was cut in size of 100 mm×100 mm, interposed between heat ray absorbing glass plates (100 mm (length)×100 mm (width)×2.0 mm (thickness)) prepared based on JIS R3208, put into a rubber bag, and deaerated for 20 minutes at a degree of vacuum of 2.6 kPa. Then, the deaerated laminate was moved into an oven and further hold for 30 minutes at 90° C. to vacuum press. Thereafter, the laminate was compressed for 20 minutes in an autoclave under the condition of a temperature of 130° C. and a pressure of 1.3 MPa, thereby obtaining a laminated glass sample.
For a heat resistance test, the laminated glass used for measuring the spectrum before test as described above was treated with heat for 200 hours at a temperature of 100° C. in a thermostat (produced by Yamato Scientific co., ltd.: IG400). By using the spectrophotometer, the absorption spectrum of the heat-treated laminated glass was measured and adopted as a spectrum after heat resistance test.
as §2, §3
E1 represents the spectrum before test, E2 represents the spectrum after test, and Σ represents integration of values of absorbance. The larger the value of ΔE, the greater the spectrum change between before and after the light fastness⋅heat resistance test.

Series [6] is described as follows: Tts of laminated glass sample. The following applies: 0.76 mm PVB interlayer with 0.013 g compound per 100 g resin, JIS R3106. How it is done:
as §6, §7
By using U-3500 type recording spectrophotometer produced by Hitachi, Ltd. as a measurement instrument, Tts of the laminated glass samples was measured based on JIS R3106 “Testing method for transmittance, reflectance, emissivity, and solar heat gain coefficient of flat glasses”.

Series [7] is described as follows: Light fastness test of heat ray shielding film. Conditions: xenon light 200 hours at 550 W/h, absorbance integrated 400 to 900 nm. How it is done: as §1
For a light fastness test, the absorption spectrum of the test piece was measured using a spectrophotometer (produced by Hitachi, Ltd.: Spectrophotometer U-3500) and adopted as a spectrum before light fastness test. Then, the test piece used for measuring the spectrum before test was irradiated with light for 200 hours at 550 W/h by using a xenon light fastness tester (produced by Toyo Seiki Seisaku-sho, Ltd.: SUNTEST XLS+). The absorption spectrum of the test piece irradiated with light was measured using the spectrophotometer and adopted as a spectrum after light fastness test.
as §2, §3, §4, §5

With `COc1cccc(OC)c1OCCCCc1ccc(CCCCOc2c(OC)cccc2OC)c2c1-c1nc-2nc2[n-]c(nc3nc(nc4[n-]c(n1)c1c(CCCCOc5c(OC)cccc5OC)ccc(CCCCOc5c(OC)cccc5OC)c41)-c1c(CCCCOc4c(OC)cccc4OC)ccc(CCCCOc4c(OC)cccc4OC)c1-3)c1c(CCCCOc3c(OC)cccc3OC)ccc(CCCCOc3c(OC)cccc3OC)c21.[O]=[V+2]` [Specific Example (1)-44], the Tts in series [1] came out at 85.6%; in series [6], 52.9%. The compound also displayed a maximum absorption in series [2] of 734.5 nm. In series [2], this compound registered a gram absorption coefficient of 67500 mL/g/cm. Besides, the figures for the “ΔE (%) Heat resistance” value in series [3] and in series [5] were 4% and 3%, respectively. Besides, the “Solubility to cyclopentanone (wt %)” value in series [4] is at least 10% wt %. In series [7], the “ΔE (%) Light fastness” value was 3%.

In the case of `COCCCCc1ccc(CCCCOC)c2c1-c1nc-2nc2[n-]c(nc3nc(nc4[n-]c(n1)c1c(CCCCOC)ccc(CCCCOC)c41)-c1c(CCCCOC)ccc(CCCCOC)c1-3)c1c(CCCCOC)ccc(CCCCOC)c21.[O]=[V+2]` [Specific Example (1)-30], the Tts in series [1] is 86.1%; in series [6], 53.2%. In series [2], this compound returned a maximum absorption of 734.0 nm. This compound also came in with a gram absorption coefficient in series [2] of 121000 mL/g/cm. Moreover, the “ΔE (%) Heat resistance” value in series [3] and in series [5] was 6% in each case. The “Solubility to cyclopentanone (wt %)” value in series [4] was at least 10% wt %. Further, the “ΔE (%) Light fastness” value in series [7] amounted to 5%.

As to `CC(C)(C)c1ccc(OCCCCc2ccc(CCCCOc3ccc(C(C)(C)C)cc3)c3c2-c2nc-3nc3[n-]c(nc4nc(nc5[n-]c(n2)c2c(CCCCOc6ccc(C(C)(C)C)cc6)ccc(CCCCOc6ccc(C(C)(C)C)cc6)c52)-c2c(CCCCOc5ccc(C(C)(C)C)cc5)ccc(CCCCOc5ccc(C(C)(C)C)cc5)c2-4)c2c(CCCCOc4ccc(C(C)(C)C)cc4)ccc(CCCCOc4ccc(C(C)(C)C)cc4)c32)cc1.[O]=[V+2]` [Specific Example (1)-42], the Tts in series [1] is 86%; in series [6] it was 52.3%. The maximum absorption in series [2] was found to be 734.5 nm. Moreover, in series [2], the gram absorption coefficient amounted to 71000 mL/g/cm. The figures for the “ΔE (%) Heat resistance” value in series [3] and in series [5] were 4% and 3%, respectively. Further, in series [4], the “Solubility to cyclopentanone (wt %)” value was at least 10% wt %. The “ΔE (%) Light fastness” value in series [7] worked out at 4%.

Regarding `COCc1ccc(COC)c2c1-c1nc-2nc2[n-]c(nc3nc(nc4[n-]c(n1)c1c(COC)ccc(COC)c41)-c1c(COC)ccc(COC)c1-3)c1c(COC)ccc(COC)c21.[O]=[V+2]` [Comparative Example Compound (a), reference compound], the Tts in series [1] was 89.5%; in series [6], 53.6%. For the same compound, in series [2], the maximum absorption is reported as 733.0 nm. The same compound registered a gram absorption coefficient in series [2] of 130000 mL/g/cm. For the same compound, the “ΔE (%) Heat resistance” value in series [3] is 31%; in series [5], 35%. The “Solubility to cyclopentanone (wt %)” value in series [4] is at most 1% wt %. For the same compound, the “ΔE (%) Light fastness” value in series [7] was determined as 33%.

Turning to `CCOCCCCc1ccc(CCCCOCC)c2c1-c1nc-2nc2[n-]c(nc3nc(nc4[n-]c(n1)c1c(CCCCOCC)ccc(CCCCOCC)c41)-c1c(CCCCOCC)ccc(CCCCOCC)c1-3)c1c(CCCCOCC)ccc(CCCCOCC)c21.[O]=[V+2]` [Specific Example (1)-33], the Tts in series [1] turned out to be 85.8%; in series [6], 51.5%. The maximum absorption in series [2] came to 734.0 nm. This compound also gave a gram absorption coefficient in series [2] of 119000 mL/g/cm. The “ΔE (%) Heat resistance” value in series [3] came out at 2%; in series [5], 3%. Besides, the “Solubility to cyclopentanone (wt %)” value in series [4] is at least 10% wt %. Besides, in series [7], the “ΔE (%) Light fastness” value is 3%.

Take `COc1cccc(OC)c1OCCCCc1ccc(CCCCOc2c(OC)cccc2OC)c2c1-c1nc-2nc2[n-]c(nc3nc(nc4[n-]c(n1)c1c(CCCCOc5c(OC)cccc5OC)ccc(CCCCOc5c(OC)cccc5OC)c41)-c1c(CCCCOc4c(OC)cccc4OC)ccc(CCCCOc4c(OC)cccc4OC)c1-3)c1c(CCCCOc3c(OC)cccc3OC)ccc(CCCCOc3c(OC)cccc3OC)c21.[Cu+2]` [Specific Example (1)-45]: the Tts worked out at 85.5% in series [1] and 52.5% in series [6]. The compound further gave a maximum absorption in series [2] of 706.5 nm. Moreover, in series [2], the gram absorption coefficient was 60100 mL/g/cm. Moreover, the entries for the “ΔE (%) Heat resistance” value in series [3] and in series [5] were 3% and 4%, respectively. The “Solubility to cyclopentanone (wt %)” value in series [4] is given as at least 10% wt %. For the same compound, the “ΔE (%) Light fastness” value in series [7] is on record as 2%.

In the case of `[O]=[V+2].c1ccc(OCCCCc2ccc(CCCCOc3ccccc3)c3c2-c2nc-3nc3[n-]c(nc4nc(nc5[n-]c(n2)c2c(CCCCOc6ccccc6)ccc(CCCCOc6ccccc6)c52)-c2c(CCCCOc5ccccc5)ccc(CCCCOc5ccccc5)c2-4)c2c(CCCCOc4ccccc4)ccc(CCCCOc4ccccc4)c32)cc1` [Specific Example (1)-37], the Tts is 85.5% in series [1] and 52.6% in series [6]. Moreover, in series [2], the maximum absorption is reported as 735.5 nm. This compound showed a gram absorption coefficient in series [2] of 86300 mL/g/cm. The “ΔE (%) Heat resistance” value in series [3] and in series [5] was 3% in each case. Besides, the “Solubility to cyclopentanone (wt %)” value in series [4] is listed as at least 10% wt %. Besides, in series [7], the “ΔE (%) Light fastness” value was 5%.
